Reference: patent publication US20140228287A1, “1-[(3-CYANO-PYRIDIN-2-YL)METHYL]-3-METHYL-7-(2-BUTYN-1-YL)-8-[3-(R)-AMINO-PIPERIDIN-1-YL]-AXANTHINE FOR THE TREATMENT OF A METABOLIC DISORDER OF A PREDOMINANTLY CARNIVOROUS NON-HUMAN ANIMAL” (BOEHRINGER INGELHEIM VETMEDICA GMBH, priority 2010, published 2014)
Structures can show the parent of a compound that is named as a salt. Where two headings read alike, the source gives them in different places.

Experiments:
[1] = target: Prolyl-Oligo Peptidase (or Prolyl Endopeptidase) (Homo sapiens, UniProt P48147); test: In vitro selectivity, human proteases: Prolyl-Oligo Peptidase; type: biochemical; conditions: up to 100 μM
Chain of Prolyl-Oligo Peptidase (or Prolyl Endopeptidase) (P48147 whole entry): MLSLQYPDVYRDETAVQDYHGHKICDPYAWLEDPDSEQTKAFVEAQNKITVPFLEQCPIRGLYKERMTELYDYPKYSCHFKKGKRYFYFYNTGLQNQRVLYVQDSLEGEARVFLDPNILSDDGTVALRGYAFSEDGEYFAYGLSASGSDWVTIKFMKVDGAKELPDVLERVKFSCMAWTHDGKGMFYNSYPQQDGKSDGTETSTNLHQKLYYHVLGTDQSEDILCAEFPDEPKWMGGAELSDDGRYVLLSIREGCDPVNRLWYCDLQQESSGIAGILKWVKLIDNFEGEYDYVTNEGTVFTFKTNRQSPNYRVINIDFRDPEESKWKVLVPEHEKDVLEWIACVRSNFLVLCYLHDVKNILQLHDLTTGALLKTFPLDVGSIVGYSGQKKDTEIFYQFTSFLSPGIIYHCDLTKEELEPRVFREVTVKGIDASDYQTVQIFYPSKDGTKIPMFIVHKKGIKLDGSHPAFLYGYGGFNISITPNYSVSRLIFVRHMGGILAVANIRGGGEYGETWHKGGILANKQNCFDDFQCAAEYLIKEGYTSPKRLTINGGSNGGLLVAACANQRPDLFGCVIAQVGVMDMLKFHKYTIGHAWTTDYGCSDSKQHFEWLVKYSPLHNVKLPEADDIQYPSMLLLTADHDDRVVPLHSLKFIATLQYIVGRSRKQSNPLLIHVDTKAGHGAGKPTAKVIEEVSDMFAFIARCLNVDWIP
Excerpt: In order to determine the in vitro selectivity of 1-[(3-cyano-pyridin-2-yl)methyl]-3-methyl-7-(2-butyn-1-yl)-8-[3-(R)-amino-piperidin-1-yl]-xanthine, the ability of this compound to inhibit a number of human proteases was investigated as described in Thomas et al. (2008), J. Pharmacol. Exp. Ther., vol. 325, p. 175-182, chapter In vitro DPP-4 Inhibition Assay, p. 176.

diabetic ZDF rats = test: Delayed OGTT in diabetic ZDF rats; type: in vivo, rat; conditions: 1 mg/kg 16 hours before the test
Protocol: A delayed oral glucose tolerance test (OGTT) was applied to diabetic db/db mice and diabetic ZDF rats, as describes in the following.
Male Zucker Diabetic Fatty (ZDF) rats (ZDF/Crl-Leprfa) were obtained from Charles River (USA). Animals were fed ad libitum with a special pelleted diet (Diet No. 2437 [containing 4.5% sucrose], Provimi Kliba, Switzerland) and had free access to water. Animals were housed in groups with a 12 h/12 h light/dark cycle (lights out between 6 p.m. and 6 a.m.). The rats were used for the experiments at 12 weeks of age.
The day before the OGTT, a blood sample from db/db mice or ZDF rats fasted for 2 hours was obtained by cutting the tip of the tail without anaesthesia and the animals were randomized for glucose (n=7 per group). The animals were fed again for 2 hours and then orally administered with either vehicle or 1-[(3-cyano-pyridin-2-yl)methyl]-3-methyl-7-(2-butyn-1-yl)-8-[3-(R)-amino-piperidin-1-yl]-xanthine monohydrochloride at doses between 0.3 and 3 mg/kg bw. A basal blood sample (pre-load) was obtained the next morning after overnight fasting for 16 hours by cutting the tip of the tail without anaesthesia. […] Additional blood samples were taken from the tip of the tail 30 min, 60 min, 90 min, 120 min, and 180 min after the glucose load, and blood glucose was measured. […]

plasma DPP-4 = target: T1, plasma DPP-4 (Felis catus, UniProt Q9N2I7); test: Inhibition of DPP-4 in cat plasma (in vitro); type: biochemical
T1 construct: from tissue; host or cells: cat plasma (3 cats), diluted 70-fold
T1 sequence (Q9N2I7 38-765 limits assumed): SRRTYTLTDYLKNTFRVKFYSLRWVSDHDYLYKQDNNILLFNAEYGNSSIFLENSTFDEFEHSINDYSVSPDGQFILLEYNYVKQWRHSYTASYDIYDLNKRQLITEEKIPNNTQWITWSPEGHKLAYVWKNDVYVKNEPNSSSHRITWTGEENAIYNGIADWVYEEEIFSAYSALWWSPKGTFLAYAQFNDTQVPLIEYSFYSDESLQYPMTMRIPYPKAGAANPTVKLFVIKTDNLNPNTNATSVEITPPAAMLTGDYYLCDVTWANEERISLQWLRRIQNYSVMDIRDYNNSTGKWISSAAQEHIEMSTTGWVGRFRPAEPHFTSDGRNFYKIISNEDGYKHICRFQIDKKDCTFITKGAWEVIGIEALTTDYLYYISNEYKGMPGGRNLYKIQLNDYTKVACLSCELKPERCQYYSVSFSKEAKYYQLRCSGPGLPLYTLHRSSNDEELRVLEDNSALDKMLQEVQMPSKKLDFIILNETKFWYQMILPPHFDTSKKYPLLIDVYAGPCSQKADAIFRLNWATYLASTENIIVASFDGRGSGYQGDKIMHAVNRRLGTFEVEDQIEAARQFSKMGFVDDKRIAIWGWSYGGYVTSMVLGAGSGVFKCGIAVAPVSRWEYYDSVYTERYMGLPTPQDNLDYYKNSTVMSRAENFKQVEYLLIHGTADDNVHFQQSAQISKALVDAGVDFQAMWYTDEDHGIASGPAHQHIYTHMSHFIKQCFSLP
Protocol: Plasma obtained from 3 different cats and one Wistar rat as control were each incubated with a range of concentrations of 1-[(3-cyano-pyridin-2-yl)methyl]-3-methyl-7-(2-butyn-1-yl)-8-[3-(R)-amino-piperidin-1-yl]-xanthine monohydrochloride. Plasma DPP-4 activity was measured in the following way (which is also described in Eckhard et al. (2007), J. Med. Chem., Vol. 50, 6450-6453, Supporting Information).
Rat and cat plasma was used for ex vivo measurement of DDP-4 activity. Blood was collected in EDTA tubes and subjected to centrifugation. The resultant supernatant was aliquoted and frozen. Plasma DPP-4 activity was assayed after dilution (140-fold for rat plasma; 70-fold for cat plasma) with assay buffer (100 mM Tris-HCl, 100 mM NaCl, pH 7.8; compound stock solutions in dimethylsulfoxide (DMSO), final DMSO concentration in the assay 1%) prior to use.
The assay itself was initiated by mixing 50 μl of diluted plasma with 50 μl of diluted substrate (Ala-Pro-AFC) and performed in black flat-bottom 96-well plates. The plates were then incubated at room temperature for 1 h and fluorescence was measured at excitation/emission wavelengths of 405/535 nm. Data analysis was performed by calculating the fluorescence in the presence of the test compound compared to the fluorescence of the vehicle control after subtracting the background fluorescence.
From a plot of concentration against activity (equivalent to fluorescence units) kinetic data could be collected, e.g. the half-maximal inhibitory concentration (IC50) of the tested compound in the different animals, which data are given in the following Table 2.

DPP IV = target: T2, DPP IV (Felis catus, UniProt Q9N2I7); test: Exploratory single dose PK/PD (0.3/1.0/3.0 mg/kg) in cats: DPP IV activity; type: in vivo, cat; conditions: for response vs control in vivo at 0.3 mg/kg: 0.3 mg/kg single oral; for response vs control in vivo at 0.3 mg/kg / response vs control in vivo at 1 mg/kg / response vs control in vivo at 3 mg/kg: read-out: DPP IV activity in cat plasma (0 h = 100%); for response vs control in vivo at 1 mg/kg: 1 mg/kg single oral; for response vs control in vivo at 3 mg/kg: 3 mg/kg single oral
T2 construct: Blood samples for the determination of this compound and DPP IV activity were collected; from tissue; host or cells: plasma of domestic short hair / purpose-bred cats dosed orally
T2 sequence (Q9N2I7 38-765 limits assumed): as above
Protocol: The aim of this first study was to investigate the PK/PD of 1-[(3-cyano-pyridin-2-yl)methyl]-3-methyl-7-(2-butyn-1-yl)-8-[3-(R)-amino-piperidin-1-yl]-xanthine in the cat after a single oral administration of 0, 0.3, 1.0 and 3.0 mg/kg body weight. For this purpose, twelve male clinically healthy adult domestic short hair cats with a body weight range of 3.5-4.5 kg were used. All animals were treated once orally with placebo or the respective 1-[(3-cyano-pyridin-2-yl)methyl]-3-methyl-7-(2-butyn-1-yl)-8-[3-(R)-amino-piperidin-1-yl]-xanthine monohydrochloride dose formulation. Blood samples for the determination of this compound and DPP IV activity were collected at 0 (pre-dose), 0.5, 1, 2, 4, 8, 24, 36, 48, 72 and 96 hours after treatment and the activity of DPP IV was determined like in example 6.
The resulting pharmacodynamic data from this experiment are summarized in following Table 3; the value of 0 h was set to 100% for each treatment.

CC#CCn1c(N2CCC[C@@H](N)C2)nc2c1c(=O)n(Cc1ncccc1C#N)c(=O)n2C [1-[(3-cyano-pyridin-2-yl)methyl]-3-methyl-7-(2-butyn-1-yl)-8-[3-(R)-amino-piperidin-1-yl]-xanthine monohydrochloride]
inhibitory effect on Prolyl-Oligo Peptidase [1]: did not exert any inhibitory effect | suppression of glucose excursion in OGTT (diabetic ZDF rats): 35% | IC50 (plasma DPP-4; cat 1 plasma): 1.94 nM | hillslope (plasma DPP-4; cat 1 plasma): −0.7518 | IC50 (plasma DPP-4; cat 2 plasma): 1.45 nM | hillslope (plasma DPP-4; cat 2 plasma): −0.7102 | IC50 (plasma DPP-4; cat 3 plasma): 1.84 nM | hillslope (plasma DPP-4; cat 3 plasma): −0.7615 | response vs control in vivo at 0.3 mg/kg (DPP IV; 0.5 h): 15% | response vs control in vivo at 0.3 mg/kg (DPP IV; 1 h): 13% | response vs control in vivo at 0.3 mg/kg (DPP IV; 2 h): 13% | response vs control in vivo at 0.3 mg/kg (DPP IV; 4 h): 15% | response vs control in vivo at 0.3 mg/kg (DPP IV; 8 h): 19% | response vs control in vivo at 0.3 mg/kg (DPP IV; 24 h): 54% | response vs control in vivo at 0.3 mg/kg (DPP IV; 36 h): 84% | response vs control in vivo at 0.3 mg/kg (DPP IV; 48 h): 93% | response vs control in vivo at 0.3 mg/kg (DPP IV; 72 h): 95% | response vs control in vivo at 0.3 mg/kg (DPP IV; 96 h): 95% | response vs control in vivo at 1 mg/kg (DPP IV; 0.5 h): 11% | response vs control in vivo at 1 mg/kg (DPP IV; 1 h): 11% | response vs control in vivo at 1 mg/kg (DPP IV; 2 h): 12% | response vs control in vivo at 1 mg/kg (DPP IV; 4 h): 12% | response vs control in vivo at 1 mg/kg (DPP IV; 8 h): 15% | response vs control in vivo at 1 mg/kg (DPP IV; 24 h): 42% | response vs control in vivo at 1 mg/kg (DPP IV; 36 h): 67% | response vs control in vivo at 1 mg/kg (DPP IV; 48 h): 80% | response vs control in vivo at 1 mg/kg (DPP IV; 72 h): 91% | response vs control in vivo at 1 mg/kg (DPP IV; 96 h): 92% | response vs control in vivo at 3 mg/kg (DPP IV; 0.5 h): 16% | response vs control in vivo at 3 mg/kg (DPP IV; 1 h): 13% | response vs control in vivo at 3 mg/kg (DPP IV; 2 h): 12% | response vs control in vivo at 3 mg/kg (DPP IV; 4 h): 14% | response vs control in vivo at 3 mg/kg (DPP IV; 8 h): 17% | response vs control in vivo at 3 mg/kg (DPP IV; 24 h): 49% | response vs control in vivo at 3 mg/kg (DPP IV; 36 h): 66% | response vs control in vivo at 3 mg/kg (DPP IV; 48 h): 85% | response vs control in vivo at 3 mg/kg (DPP IV; 72 h): 101% | response vs control in vivo at 3 mg/kg (DPP IV; 96 h): 95% | inhibition of DPP IV (DPP IV; all doses (0.3, 1.0, 3.0 mg/kg single oral)): more than 80%
